Source: PubChem BioAssay (NCI)
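A five-concentration, 48-hour dose response in 96-well plates underlies each endpoint, interpolated linearly between surrounding concentrations. At the TGI there is no net growth.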 Where a SMILES comes first, the peptide text is derived from it. [ ]: non-standard residue; d: D form. The star is where a group is joined. Phe(4-NO2) = N[CH](Cc1ccc([N+](=O)[O-])cc1)C(=O)O; Cbz = O=C(OCc1ccccc1)*

How the values were obtained:
Assay in all cases: NCI-60 cell line screen, 48 h
T-47D breast = test system: T-47D breast
OVCAR-4 ovarian = test system: OVCAR-4 ovarian
NCI-H23 lung = test system: NCI-H23 lung
MDA-N = test system: MDA-N
NCI-H460 lung = test system: NCI-H460 lung
OVCAR-8 ovarian = test system: OVCAR-8 ovarian
ACHN renal = test system: ACHN renal
SNB-75 CNS = test system: SNB-75 CNS
HOP-92 NSCLC = test system: HOP-92 NSCLC
UO-31 renal = test system: UO-31 renal
IGROV1 ovarian = test system: IGROV1 ovarian
MCF7 breast = test system: MCF7 breast
SK-OV-3 ovarian = test system: SK-OV-3 ovarian
CAKI-1 renal = test system: CAKI-1 renal
EKVX NSCLC = test system: EKVX NSCLC
OVCAR-5 ovarian = test system: OVCAR-5 ovarian
K-562 leukemia = test system: K-562 leukemia
NCI-H522 lung = test system: NCI-H522 lung

Row | Compound | TGI (T-47D breast) [µM] | TGI (OVCAR-4 ovarian) [µM] | TGI (NCI-H23 lung) [µM] | TGI (MDA-N) [µM] | TGI (NCI-H460 lung) [µM] | TGI (OVCAR-8 ovarian) [µM] | TGI (ACHN renal) [µM] | TGI (SNB-75 CNS) [µM] | TGI (HOP-92 NSCLC) [µM] | TGI (UO-31 renal) [µM] | TGI (IGROV1 ovarian) [µM] | TGI (MCF7 breast) [µM] | TGI (SK-OV-3 ovarian) [µM] | TGI (CAKI-1 renal) [µM] | TGI (EKVX NSCLC) [µM] | TGI (OVCAR-5 ovarian) [µM] | TGI (K-562 leukemia) [µM] | TGI (NCI-H522 lung) [µM]
1 | Clc1nc(NC23CC4CC(CC(C4)C2)C3)nc(NC23CC4CC(CC(C4)C2)C3)n1 | > 89 | > 100 | > 100 | > 100 | > 100 | > 100 | > 100 | > 78 | > 100 | > 100 | > 100 | > 100 | > 100 | > 100 | > 100 | > 100 | 47 | –
2 | CCOC1OC(CO[Si](C)(C)C(C)(C)C)C(O)CC1n1ccc(=O)[nH]c1=O (centres undefined) | > 100 | > 100 | > 100 | > 100 | > 100 | > 100 | > 100 | > 100 | > 100 | > 100 | 48.6 | 88.7 | – | > 100 | > 100 | > 100 | 73.1 | 45.6
3 | O=C(Cn1c(C(=O)/C=C/c2ccc(Cl)c(Cl)c2)nc2ccccc21)c1ccccc1 | > 100 | 73.2 | > 100 | 47.2 | 39.4 | – | 93.5 | – | 96.1 | 56 | 79 | 82.2 | > 100 | – | 42.8 | 50.2 | > 100 | –
4 | O=C(c1ccsc1)c1nccc2c1cnc1ccccc12 | > 100 | > 100 | > 100 | > 100 | > 100 | > 100 | > 100 | 88.2 | > 100 | > 100 | 17.1 | > 100 | > 100 | > 100 | 88.4 | > 100 | – | 62
5 | CC(C)(C)c1cc(C(C)(C)C)c(SSc2c(C(C)(C)C)cc(C(C)(C)C)c(O)c2O)c(O)c1O | 27.2 | 15.5 | 22.8 | 23.9 | 13.2 | 47.7 | 26.6 | 41.9 | 31.9 | 18.6 | 26.3 | 27.5 | – | 23.7 | 35.7 | 31.3 | 26.2 | 16.6
6 | CCCCCCCCCCCC(=O)OCC(O)CO (centres undefined) | > 100 | > 100 | > 100 | > 100 | > 100 | > 100 | > 100 | > 100 | > 100 | > 100 | – | > 100 | > 100 | > 100 | > 100 | > 100 | – | > 100
7 | O=C1C=CC2(C=C1)O[C@H](CCc1ccccc1)[C@@H](CCc1ccccc1)O2 | > 100 | > 100 | > 100 | > 100 | > 100 | > 100 | > 100 | > 100 | 94.3 | > 100 | > 100 | > 100 | > 100 | > 100 | 83.3 | > 100 | > 100 | –
8 | CC1(c2cccc(C(F)(F)F)c2)CC(c2cccc(C(F)(F)F)c2)=C(C#N)C(=C(C#N)C#N)N1 (centres undefined) | 41.7 | 30.8 | 38.2 | 33.6 | 45.8 | 40.2 | 31 | 33.6 | 10.6 | 33.4 | 30.6 | 34.9 | 29.6 | 33.3 | 34 | 32.8 | 34.2 | –
9 | COC(=O)C1=CCC[C@H]2[C@@]1(COC(C)=O)CC[C@@H](C)[C@]2(C)CC(=O)c1ccoc1 | 35.7 | > 50 | 47.2 | > 50 | > 50 | > 50 | > 50 | > 50 | 37.8 | > 50 | > 50 | > 50 | > 50 | > 50 | > 50 | > 50 | – | 22
10 | CCOP(=O)(OCC)/C(C#N)=C/c1cccn1C | > 100 | > 100 | > 100 | > 100 | > 100 | > 100 | > 100 | > 100 | > 100 | 99.5 | > 100 | > 100 | > 100 | > 100 | > 100 | > 100 | – | > 100
11 | CC1(C)COC(c2cccc(C(=O)c3ccccc3)c2)=N1 | > 100 | > 100 | > 100 | > 100 | > 100 | > 100 | > 100 | – | > 100 | > 100 | > 100 | > 100 | > 100 | > 100 | > 100 | > 100 | > 100 | 88.1
12 | CN(C)Cc1cc(C(=O)/C=C/c2ccc(Cl)cc2Cl)cc(CN(C)C)c1O | 22.1 | 13.1 | 22.6 | 5.92 | 4.4 | 11 | 10.9 | 16.7 | 8.55 | 6.01 | 10.4 | 15.3 | – | 5.61 | 19.7 | 28.7 | 5.29 | 7.29
13 | COc1ccc(C(=O)c2[nH]c(Nc3cc(C)ccn3)c(C(=S)Nc3ccccc3)c2N)cc1 | > 100 | 36.5 | 72.6 | 56.2 | 31.5 | 52.4 | 97.4 | 50.9 | – | 57.4 | 42 | 75.2 | 47 | > 100 | > 100 | 74.1 | > 100 | 29.9
14 | CCOC(=O)C1Cc2ccc(C)cc2C1=O (centres undefined) | > 100 | > 100 | > 100 | > 100 | > 100 | > 100 | > 100 | > 100 | > 100 | > 100 | > 100 | > 100 | > 100 | > 100 | > 100 | > 100 | > 100 | –
15 | CCOC(=O)C1=C(C)N(Cc2ccccc2)C2(O)C=CC(=O)C3C(=O)N(c4ccccc4)C(=O)C132 (centres undefined) | 9.27 | 6.45 | 5.36 | 12.5 | 4.77 | 3.32 | 3.25 | – | 7.96 | 3.81 | 4.32 | 12.7 | 19.3 | 4.17 | 22.5 | 9.85 | 27.3 | 3.32
16 | c1ccc(CSCCC(SCc2ccccc2)SCc2ccccc2)cc1 | > 10 | > 10 | > 10 | > 10 | > 10 | > 10 | > 10 | > 10 | > 10 | > 10 | > 10 | > 10 | > 10 | > 10 | > 10 | – | > 10 | > 10
17 | COC(=O)/C=C1/OC(c2ccccc2)=C(Br)C1=O | > 100 | > 100 | > 100 | > 100 | > 100 | > 100 | > 100 | > 100 | > 100 | > 100 | – | > 100 | > 100 | 51.3 | > 100 | > 100 | > 100 | 62.2
18 | C=CCNC(=S)NC=C(C(N)=O)C(N)=O | > 100 | > 100 | > 100 | > 100 | > 100 | > 100 | > 100 | > 100 | – | > 100 | > 100 | > 100 | > 100 | > 100 | > 100 | > 100 | > 100 | > 100
19 | COC(=O)c1c(C)c2c(c(C)c1O)OC(=O)c1c(C)cc(O)c(C=O)c1O2 | > 100 | > 100 | > 100 | > 100 | > 100 | > 100 | > 100 | – | > 100 | – | > 100 | > 100 | > 100 | – | > 100 | > 100 | > 100 | > 100
20 | CCN1C(c2ccccc2)=CC(c2ccccc2)(C(Cl)(Cl)Cl)C=C1c1ccccc1 | 2.29 | > 100 | 93.4 | > 100 | 23.3 | > 100 | > 100 | > 100 | 25.8 | > 100 | 27.9 | > 100 | – | > 100 | 83 | 79 | > 100 | > 100
21 | NNC(=O)c1cc(Cl)ccc1NC(=O)C12CC3CC(CC(C3)C1)C2 | > 100 | > 100 | > 100 | 70.5 | > 100 | > 100 | 77.8 | > 100 | > 100 | 45.4 | > 100 | > 100 | > 100 | > 100 | – | 53.9 | > 100 | > 100
22 | Cc1ccccc1-n1c(=O)nc2n(-c3ccc(C(C)(C)C)cc3)c3ccccc3cc-2c1=O | > 100 | 92.5 | 58.2 | 82.4 | 28.7 | 42.9 | > 100 | 66.3 | 50.1 | 95.1 | 64.5 | 59.9 | – | 71.4 | 64.6 | 63.6 | > 100 | 47.6
23 | COc1cccc(/C=N/[N+](C)(C)C)c1O | > 10 | > 10 | > 10 | > 10 | > 10 | > 10 | > 10 | > 10 | – | > 10 | > 10 | > 10 | > 10 | > 10 | > 10 | > 10 | > 10 | > 10
24 | COc1ccc(-c2c(C#N)c(N)nc(Sc3ccccc3N)c2C#N)cc1 | 17.5 | > 100 | > 100 | > 100 | > 100 | 45.7 | 51.4 | – | 27.2 | > 100 | > 56.8 | > 65.7 | 32.6 | > 65.9 | > 100 | > 100 | > 100 | 62.5
25 | CCOC(=O)CCC(NC(=O)OCc1ccccc1)C(=O)NC(CCC(=O)OCC)C(=O)NC(CCC(=O)OCC)C(=O)NC(CCC(=O)OCC)C(=O)NC(CCC(=O)OCC)C(=O)NC(Cc1ccc([N+](=O)[O-])cc1)C(=O)NC(CCC(=O)OCC)C(=O)NC(CCC(=O)OCC)C(=O)NC(CCC(=O)OCC)C(=O)NC(CCC(=O)OCC)C(=O)NC(CCC(=O)OCC)C(=O)OCC (centres undefined) (Cbz-E(OEt)E(OEt)E(OEt)E(OEt)E(OEt)[Phe(4-NO2)]E(OEt)E(OEt)E(OEt)E(OEt)E(OEt)-OEt; configuration not given here) | > 50 | > 50 | > 50 | > 50 | > 50 | – | > 50 | > 50 | – | > 50 | > 50 | > 50 | > 50 | – | > 50 | > 50 | > 50 | > 50
26 | CCC(=O)NC(NNS(=O)(=O)c1ccc(C)cc1)(C(F)(F)F)C(F)(F)F | > 100 | – | > 100 | 54.3 | > 100 | > 100 | > 100 | > 100 | > 100 | > 100 | > 100 | > 100 | > 100 | > 100 | > 100 | > 100 | > 100 | 62.4
